According to patent publication US20250320206A1, “STAT6 DEGRADERS” (Gilead Sciences, Inc., priority 2024, published 2025):

Columns and labels:
[1] = system: Eotaxin-3 release in human whole blood stimulated with IL-4; test: Human Whole Blood Eotaxin-3 Assay (IL-4 stimulated eotaxin-3 release); assay type: cell-based; conditions: IL-4 stimulation, 48 h, values given for compounds with >80% Emax, geometric mean
Method in brief: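 Eotaxin-3 (CCL26) release measured by MSD kit in plasma supernatant after 48 h IL-4 stimulation ([…]) of human whole blood. Compounds added in triplicate 4-fold dilutions 2 h before stimulation; 0.5% DMSO final, 37° C, 5% CO2.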

STAT6 = target: T1, STAT6 (Homo sapiens, UniProt P42226); test: Stat6 Degrader Assay (HiBiT based, HeLa LgBiT clone 4.14); assay type: cell-based; conditions: HeLa LgBiT clone 4.14 HiBiT-STAT6, 4-24 h incubation; values given for compounds with >80% Emax; geometric mean; read-out: STAT6 degradation DC50
T1 construct: These cells express endogenous STAT6; host or cells: HeLa LgBiT clone 4.14
T1 sequence (P42226 1-847): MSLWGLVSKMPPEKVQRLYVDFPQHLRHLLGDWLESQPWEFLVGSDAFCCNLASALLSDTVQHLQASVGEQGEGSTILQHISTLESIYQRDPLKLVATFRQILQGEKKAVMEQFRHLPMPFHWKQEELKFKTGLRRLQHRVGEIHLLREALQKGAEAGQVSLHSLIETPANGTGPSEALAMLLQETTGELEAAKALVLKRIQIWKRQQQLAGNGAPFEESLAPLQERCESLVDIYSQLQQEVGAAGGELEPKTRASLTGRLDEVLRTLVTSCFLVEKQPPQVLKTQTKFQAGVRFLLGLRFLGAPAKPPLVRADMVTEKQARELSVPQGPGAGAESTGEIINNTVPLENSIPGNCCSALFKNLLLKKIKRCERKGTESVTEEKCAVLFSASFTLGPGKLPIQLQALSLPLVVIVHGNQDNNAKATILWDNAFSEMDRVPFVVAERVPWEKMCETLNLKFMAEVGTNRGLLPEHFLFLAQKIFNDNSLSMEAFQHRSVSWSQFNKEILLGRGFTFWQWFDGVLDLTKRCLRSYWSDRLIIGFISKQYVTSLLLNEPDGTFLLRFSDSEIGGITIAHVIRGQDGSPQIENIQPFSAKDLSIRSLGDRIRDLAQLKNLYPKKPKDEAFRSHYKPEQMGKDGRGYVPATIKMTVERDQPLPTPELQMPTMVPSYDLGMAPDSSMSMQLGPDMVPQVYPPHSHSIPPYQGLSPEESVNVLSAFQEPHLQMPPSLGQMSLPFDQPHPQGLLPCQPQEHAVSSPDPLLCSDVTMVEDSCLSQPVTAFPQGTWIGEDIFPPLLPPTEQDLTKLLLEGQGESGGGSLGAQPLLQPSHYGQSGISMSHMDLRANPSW
Method in brief: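 Luminescence from HiBiT-STAT6 complementing stably expressed LgBiT in HeLa clone 4.14 reports remaining STAT6 protein. Cells (5000/well) exposed to compound for 4-24 h at 37° C; read 0.5 h after Nano-Glo addition. 100% degradation window set with 50 μM terfenadine; percent degradation plotted against concentration.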

Row | SMILES | EC50 [1] [nM] | DC50 (STAT6) [nM]
1 | CNc1nc(=O)n(-c2ccnc3c2cc(CN2CCC(c4c(F)cc(C(=O)N5CCC(CN6CCN(Cc7ccc8c(c7)C7(CC7)C(=O)N8C7CCC(=O)NC7=O)C[C@@H]6C)CC5)cc4F)CC2)n3C)cc1F (stereo partly drawn) [Example 3h10, 3-(5′-(((S)-4-((1-(3,5-difluoro-4-(1-((4-(5-fluoro-4-(methylamino)-2-oxopyrimidin-1 (2H)-yl)-1-methyl-1H-pyrrolo[2,3-b]pyridin-2-yl)methyl)piperidin-4-yl)benzoyl)piperidin-4-yl)methyl)-3-methylpiperazin-1-yl)methyl)-2′-oxospiro[cyclopropane-1,3′-indolin]-1′-yl)piperidine-2,6-dione] | 4.8 | 3.2
2 | CNc1ccn(-c2ccnc3c2cc([C@H](C)N2CC=C(c4c(C)cc(C(=O)N(C)c5ccc(C6CCN(Cc7ccc8c(c7)n(C)c(=O)n8C7CCC(=O)NC7=O)CC6)cc5)cc4F)CC2)n3C)c(=O)c1 (stereo partly drawn) [Example 3u225, N-(4-(1-((1-(2,6-dioxopiperidin-3-yl)-3-methyl-2-oxo-2,3-dihydro-1H-benzo[d]-imidazol-5-yl)methyl)piperidin-4-yl)phenyl)-3-fluoro-N,5-dimethyl-4-(1-((S)-1-(1-methyl-4-(4-(methyl-amino)-2-oxopyridin-1 (2H)-yl)-1H-pyrrolo[2,3-b]pyridin-2-yl)ethyl)-1,2,3,6-tetrahydropyridin-4-yl)-benzamide] | 0.3 | 0.1
3 | CNc1ccn(-c2ccnc3c2cc([C@H](C)N2CC=C(c4c(C)cc(C(=O)N5CCC(CN6CCN(Cc7ccc8c(c7)C7(CC7)C(=O)N8[C@@H]7CCC(=O)NC7=O)C[C@@H]6C)CC5)cc4F)CC2)n3C)c(=O)c1 (single isomer, unassigned) [Example 3u192] | 0.9 | 0.6
4 | CNc1cc(=O)n(-c2ccnc3c2cc(CN2CCC(c4c(F)cc(C(=O)N5CCC(CN6CCN(Cc7ccc8c(c7)C7(CC7)C(=O)N8[C@H]7CCC(=O)NC7=O)C[C@@H]6C)CC5)cc4F)CC2)n3C)cc1F (single isomer, unassigned) [Example 3u220] | 2.4 | 1.3
5 | CNc1ccn(-c2ccnc3c2cc([C@H](C)N2CC=C(c4c(C)cc(C(=O)N(C)C5CCN(C6CCN(Cc7ccc8c(c7)n(C)c(=O)n8C7CCC(=O)NC7=O)CC6)CC5)cc4F)CC2)n3C)c(=O)c1 (stereo partly drawn) [Example 3u35, N-(1′-((1-(2,6-dioxopiperidin-3-yl)-3-methyl-2-oxo-2,3-dihydro-1H-benzo[d]imidazol-5-yl)methyl)-[1,4′-bipiperidin]-4-yl)-3-fluoro-N,5-dimethyl-4-(1-((S)-1-(1-methyl-4-(4-(methylamino)-2-oxopyridin-1 (2H)-yl)-1H-pyrrolo[2,3-b]pyridin-2-yl)ethyl)-1,2,3,6-tetrahydropyridin-4-yl)benzamide] | 5.5 | 9.6
6 | CNc1ccn(-c2ccnc3c2cc([C@H](C)N2CCC(c4ccc(C(=O)N5CCC(CN6CCN(Cc7ccc8c(c7)C(C)(C)C(=O)N8C7CCC(=O)NC7=O)C[C@@H]6C)CC5)cc4)CC2)n3C)c(=O)c1 (stereo partly drawn) [Example 3u187, 3-(3,3-dimethyl-5-(((S)-3-methyl-4-((1-(4-(1-((S)-1-(1-methyl-4-(4-(methylamino)-2-oxopyridin-1 (2H)-yl)-1H-pyrrolo[2,3-b]pyridin-2-yl)ethyl)piperidin-4-yl)benzoyl)piperidin-4-yl)-methyl)piperazin-1-yl)methyl)-2-oxoindolin-1-yl)piperidine-2,6-dione] | 4.2 | 3.1
7 | CNc1cc(=O)n(-c2ccnc3c2cc(CN2CCC(c4c(F)cc(C(=O)N5CCC(CN6CCN(Cc7ccc8c(c7)C(C)(C)C(=O)N8C7CCC(=O)NC7=O)CC6)CC5)cc4F)CC2)n3C)cc1F (centres unmarked) [Example 3u57, 3-(5-((4-((1-(3,5-difluoro-4-(1-((4-(5-fluoro-4-(methylamino)-2-oxopyridin-1 (2H)-yl)-1-methyl-1H-pyrrolo[2,3-b]pyridin-2-yl)methyl)piperidin-4-yl)benzoyl)piperidin-4-yl)methyl)piperazin-1-yl)methyl)-3,3-dimethyl-2-oxoindolin-1-yl)piperidine-2,6-dione] | 25.4 | 12
8 | CNc1ccn(-c2ccnc3c2cc([C@H](C)N2CC=C(c4c(C)cc(C(=O)N5CCC(CN6CCN(Cc7ccc8c(c7)C7(CC7)C(=O)N8C7CCC(=O)NC7=O)C[C@@H]6C)CC5)cc4F)CC2)n3C)c(=O)c1 (mixture of isomers) [Example 3u190, 3-(5′-(((S)-4-((1-(3-fluoro-5-methyl-4-(1-((S)-1-(1-methyl-4-(4-(methylamino)-2-oxopyridin-1 (2H)-yl)-1H-pyrrolo[2,3-b]pyridin-2-yl)ethyl)-1,2,3,6-tetrahydropyridin-4-yl)benzoyl)piperidin-4-yl)methyl)-3-methylpiperazin-1-yl)methyl)-2′-oxospiro[cyclopropane-1,3′-indolin]-1′-yl)piperidine-2,6-dione] | 0.9 | 0.5
9 | CNc1ccn(-c2ccnc3c2cc([C@H](C)N2CC=C(c4c(C)cc(C(=O)N5CCC(CN6CCN(Cc7cc8c(cc7F)n([C@H]7CCC(=O)NC7=O)c(=O)n8C)C[C@@H]6C)CC5)cc4F)CC2)n3C)c(=O)c1 (single isomer, unassigned) [Example 3u208] | 0.8 | 0.6
10 | CNc1ccn(-c2ccnc3c2cc(CN2CC=C(c4c(F)cc(C(=O)N5CCC(CN6CCN(Cc7ccc8c(c7)n(C7CC7)c(=O)n8[C@H]7CCC(=O)NC7=O)C[C@@H]6C)CC5)cc4F)CC2)n3C)c(=O)c1 (single isomer, unassigned) [Example 3u72] | 1.9 | 4.5
11 | CNc1ccn(-c2ccnc3c2cc([C@H](C)N2CC=C(c4c(C)cc(C(=O)N5CCC(CN6CCN(Cc7cc8c(cc7F)n([C@H]7CCC(=O)NC7=O)c(=O)n8C)CC6)CC5)cc4F)CC2)n3C)c(=O)c1 (single isomer, unassigned) [Example 3u11] | 0.2 | 0.5
12 | Cc1cc(C(=O)N2CCC(CN3CCN(Cc4ccc5c(c4)C(C)(C)C(=O)N5[C@@H]4CCC(=O)NC4=O)C[C@@H]3C)CC2)cc(F)c1C1=CCN([C@@H](C)c2cc3c(-n4cc(F)c(N)cc4=O)ccnc3n2C)CC1 (single isomer, unassigned) [Example 3u171] | 15.4 | 3.5
13 | CNc1ccn(-c2ccnc3c2cc(CN2CC=C(c4c(F)cc(C(=O)N5CCC(CN6CCN(Cc7ccc8c(c7)n(C7CC7)c(=O)n8C7CCC(=O)NC7=O)C[C@@H]6C)CC5)cc4F)CC2)n3C)c(=O)c1 (stereo partly drawn) [Example 3u71, 3-(3-cyclopropyl-5-(((S)-4-((1-(3,5-difluoro-4-(1-((1-methyl-4-(4-(methylamino)-2-oxopyridin-1 (2H)-yl)-1H-pyrrolo[2,3-b]pyridin-2-yl)methyl)-1,2,3,6-tetrahydropyridin-4-yl)benzoyl)piperidin-4-yl)methyl)-3-methylpiperazin-1-yl)methyl)-2-oxo-2,3-dihydro-1H-benzo[d]imidazol-1-yl)piperidine-2,6-dione] | 1.8 | 5.3
